Data set [1] can be described thus: Solubility of the salt compared to the free acid (methanol rinse). The format is physicochemical. The source says: The neutralized product is then rinsed with a rinsing agent, for example, methanol, to remove other acid by-products, such as hydrochloric and sulfuric acids, and/or mono-sulfonic acids, and/or to remove other salts formed by the neutralization, such as salts of hydrochloric and sulfuric acids, and/or mono-sulfonic acids. It was discovered that […] solvents, such as methanol, would remove the by-product acids and/or salts, while leaving the salt of 2,4-pentanedione-1,5 disulfonic acid primarily undissolved.
The neutralized product was then rinsed several times with methanol to remove by-product acids, or any salts formed therefrom, while leaving the 2,4-pentanedione-1,5-sodium disulfonate primarily undissolved. […] The rinsed product was dried in a vacuum oven and filtered through a 300 mesh screen to afford a flowing pale orange/red powder. The resulting powder was 2,4-pentanedione-1,5-sodium disulfonate.

The subject of the next data set is acartia tonsa. In words: Toxicity to crustacean, ISO 14669. The format is in vivo. From the text:
(§1) According to still other embodiments described herein, a disulfonate salt of 2,4-pentanedione is provided. According to one such embodiment, the salt comprises 2,4-pentanedione-1,5-sodium disulfonate. According to another such embodiment, a disulfonate salt of 2,4-pentanedione has an environmentally acceptable toxicity. As used herein, the term “environmentally acceptable toxicity” means that, when tested according to procedures that are the same as or equivalent to those set forth by the OSPAR Guidelines for Completing the Harmonised Offshore Chemical Notification Format (HOCNF) (References number: 2003-1) that were in effect on Dec. 31, 2004, the salt is determined to have a toxicity of greater than about 10,000 mg/L for an algae (skeletonema costatum), a crustacean (acartia tonsa), a fish (scopthalmus) and a sediment reworker (corophium volutator). […]
(§2) In this Example 3, the toxicity results for the skeletonema costatum were determined according to ISO (International Organization for Standardization) 10253, the protocol for which is known to those of ordinary skill in the art, and is also the protocol required under the above-referenced HOCNF Guidelines. The toxicity results for the acartia tonsa were determined according to ISO 14669, the protocol for which is known to those of ordinary skill in the art. […]

For the next data set, the system named is skeletonema costatum. Put plainly: Toxicity to algae, ISO 10253 (HOCNF). It is filed as in vivo.
Text: as §1, §2

The subject of the next data set is corophium volutator. In words: Toxicity to sediment reworker, Part B of the OSPAR Protocols. The format is in vivo.
Text: as §1, §2

The subject of the next data set is scopthalmus. Put plainly: Toxicity to fish, Part B of the OSPAR Protocols. The format is in vivo.
Text: as §1, §2

For the molecule `O=C(CC(=O)CS(=O)(=O)[O-])CS(=O)(=O)[O-].[Na+].[Na+]` [2,4-pentanedione-1,5-sodium disulfonate], the “solubility compared to the 2,4-pentanedione-1,5-disulfonic free acid” value in data set [1] is given as “significantly less soluble”. The “toxicity (amount required to kill or incapacitate half the test population)” value with acartia tonsa, in the data set with skeletonema costatum, in the data set on corophium volutator and in the data set on scopthalmus was “greater than 10,000 mg/L” each time.

Source of the values: patent publication US7273949B2, “Salts and methods for their preparation” (Halliburton Energy Services, Inc., priority 2005, dated 2007).
